Experimental data taken from US20230018423A1, “BENZIMIDAZOLE DERIVATIVES FOR TREATMENT AND/OR PREVENTION OF DISEASES AND DISORDERS MEDIATED BY NLRP3” (YODA PHARMACEUTICALS INC., priority 2021, published 2023).

How the values were obtained:
[1] = test system: TgM83 mice; assay: Open field task (locomotion activity) in TgM83 mouse model; assay type: in vivo
[2] = test system: TgM83 mice; assay: Rotarod task (motor coordination) in TgM83 mouse model; assay type: in vivo
[3] = biological target: T1, NLRP3 inflammasome (Homo sapiens, UniProt Q96P20); assay: NLRP3 inflammasome assay, IL-1β ELISA in LPS- and ATP-treated THP-1 cells; conditions: 50 ng/mL LPS + 5 mM ATP, compared to the LPS+ATP group, MCC950 1 uM, RS-D7 0.1-5 uM, others 0.2-5 uM, FIG. 2A
T1 sequence (Q96P20 whole entry): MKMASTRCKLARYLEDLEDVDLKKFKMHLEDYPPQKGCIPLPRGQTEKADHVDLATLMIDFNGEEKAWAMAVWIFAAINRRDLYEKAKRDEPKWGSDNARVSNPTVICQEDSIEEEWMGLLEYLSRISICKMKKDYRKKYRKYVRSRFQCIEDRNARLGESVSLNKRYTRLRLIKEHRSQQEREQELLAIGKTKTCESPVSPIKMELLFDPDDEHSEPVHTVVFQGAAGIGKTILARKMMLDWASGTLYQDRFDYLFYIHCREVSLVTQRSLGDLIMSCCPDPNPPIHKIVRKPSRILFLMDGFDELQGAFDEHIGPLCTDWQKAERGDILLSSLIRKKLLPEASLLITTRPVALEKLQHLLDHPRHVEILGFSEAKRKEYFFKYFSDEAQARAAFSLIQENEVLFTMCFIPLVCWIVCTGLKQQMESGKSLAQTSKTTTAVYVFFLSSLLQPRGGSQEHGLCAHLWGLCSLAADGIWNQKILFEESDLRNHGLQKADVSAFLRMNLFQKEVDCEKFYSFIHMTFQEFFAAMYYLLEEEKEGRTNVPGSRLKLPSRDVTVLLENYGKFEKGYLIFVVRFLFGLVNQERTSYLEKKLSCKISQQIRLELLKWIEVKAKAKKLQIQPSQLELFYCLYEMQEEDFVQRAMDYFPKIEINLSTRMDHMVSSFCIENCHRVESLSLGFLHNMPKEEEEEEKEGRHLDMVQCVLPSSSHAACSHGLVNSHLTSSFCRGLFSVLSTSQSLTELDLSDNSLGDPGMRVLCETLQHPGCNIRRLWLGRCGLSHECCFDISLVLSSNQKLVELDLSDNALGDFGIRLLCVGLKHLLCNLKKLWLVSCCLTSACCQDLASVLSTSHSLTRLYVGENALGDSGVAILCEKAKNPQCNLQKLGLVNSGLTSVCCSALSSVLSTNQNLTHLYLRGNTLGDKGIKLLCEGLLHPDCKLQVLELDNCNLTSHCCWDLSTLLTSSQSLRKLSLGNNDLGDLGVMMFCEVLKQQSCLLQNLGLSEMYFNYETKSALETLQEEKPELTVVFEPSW
Experimental: (§3) The assays were conducted using Human promonocytic leukemia THP-1 cells.
(§4) Human promonocytic leukemia THP-1 cells were cultured in RPMI and treated with Phorbol 12-myristate 13-acetate (PMA). […] The supernatant of PMA-differentiated THP-1 cells was collected at given time points after stimulation, and IL-1β level in cell culture supernatant was determined using IL-1 beta Human Uncoated ELISA Kit (Invitrogen). Supernatants and cell lysate were also evaluated by immunoblotting methods. The immunoreactive signals were developed using Immobilon Crescendo Western HRP substrate and the digitized image of the membrane was detected by ImageQuant LAS 4000mini (GE) according to the manufacturer's instructions.

[4] = biological target: T1, NLRP3 inflammasome; assay: NLRP3 inflammasome assay, western blot (immunoblotting) of LPS+MSU-treated PMA-primed THP-1 cells; conditions: MCC950 1 uM, RS-D7 0.1, 1 and 5 uM, FIG. 1
Experimental: as §3, §4

[5] = test system: IL-1β; assay: Inflammation cytokine ELISA in the cerebellum of TgM83 mice: IL-1β; assay type: in vivo, mouse; conditions: 30 mg/kg oral gavage, sacrificed after 20 minutes, P<0.05, FIG. 5A
From the text: (§1) To characterize the inflammatory response after RS-D7 treatment, the level of inflammation cytokines, including interleukin-1 beta (IL-1β), interleukin-6 (IL-6), and Tumor Necrosis Factor-α (TNF-α), were examined in the cerebellum of male TgM83 and WT littermate mice (n=5 each) using enzyme-linked immunosorbent assay (ELISA). All the animals were sacrificed after 20-minutes RS-D7 treatment and the tissue samples were taken from […] of the mouse brain from male WT littermates, TgM83 mice and TgM83 mice with RS-D7 treatment (30 mg/kg, P.O.). These samples were dissected on ice and then stored at −80° C. before use. The ELISA experiment was performed using commercial kits for IL-1β (88-7013, Invitrogen, USA), IL-6 (88-7064, Invitrogen, USA) and TNF-α (88-7324, Invitrogen, USA). Procedures were followed according to manufactures protocols. Standards and samples were run in triplicates. OD values were read at 450 nm using a microplate reader (ThermoFisher Scientific, USA). Calculation of concentrations were done according to manufactures protocol using standard curve methods.
(§2) All of the data are presented as the mean+SE of the mean (SEM). The data was analyzed with one-way ANOVA in behavioral results. A post-hoc analysis was performed with Fisher's LSD test when F values reaching significant difference. […]

[6] = test system: IL-6; assay: Inflammation cytokine ELISA in the cerebellum of TgM83 mice: IL-6; assay type: in vivo, mouse; conditions: 30 mg/kg oral gavage, sacrificed after 20 minutes, P<0.05, FIG. 5B
From the text: as §1, §2

[7] = biological target: T1, NLRP3 inflammasome; assay: NLRP3 inflammasome assay, IL-1β ELISA in LPS- and MSU-treated THP-1 cells; conditions: 50 ng/mL LPS + 400 ug/ml MSU, compared to the LPS+MSU group, RS-D7 0.1-5 uM, others 0.2-5 uM, FIG. 2B
Experimental: as §3, §4

[8] = test system: TNF-α; assay: Inflammation cytokine ELISA in the cerebellum of TgM83 mice: TNF-α; assay type: in vivo, mouse; conditions: 30 mg/kg oral gavage, sacrificed after 20 minutes, P<0.05, FIG. 5C
From the text: as §1, §2

IL-1β level in cell culture supernatant (ELISA) [3]	expression of IL-1β (western blot) [4]	expression of caspase-1 (western blot) [4]	IL-1β level in cell culture supernatant (ELISA) [7]	Compound	increase of distance moved versus TgM83 vehicle mice (rescue of hypolocomotion) ([1]; 30 mg/kg oral gavage, one hour, P<0.05)	total distance moved in the open field test ([1]; 12-month-old, single dose 30 mg/kg PO, 1-hour period, mean±sem, TgM83 vehicle 15,472±942, WT 21,552±1,269)	prolonging of the falling latency versus TgM83 vehicle mice ([2]; 30 mg/kg oral gavage, P<0.05)	falling latency on the rotarod ([2]; single dose 30 mg/kg PO, accelerating 4-40 rpm, mean±sem, TgM83 vehicle 55.3±10.4, WT 99.5±7.5)	IL-1β level in the cerebellum (ELISA) [5]	IL-6 level in the cerebellum (ELISA) [6]	TNF-α level in the cerebellum (ELISA) [8]
significantly lower levels	dose-dependent inhibition	dose-dependent inhibition	significantly lower levels	COc1c(C)cnc(C[S+]([O-])c2nc3ccc(O)cc3[nH]2)c1C (stereo not drawn) [RS-D7, 5-O-Desmethyl-Omeprazole]	5,007 cm	20,479±730 cm	76.8 s	132.1 ± 16.1 s	significantly inhibit the overexpression	significantly inhibit the overexpression	significantly inhibit the overexpression
significantly lower levels			significantly lower levels	COc1c(C)cnc(CSc2nc3cc(C(=O)O)ccc3n2CCC2=CCCCC2)c1C [compound 12083, 1-(2-(cyclohex-1-en-1-yl)ethyl)-2-(((4-methoxy-3,5-dimethylpyridin-2-yl)methyl)thio)-1H-benzo[d]imidazole-5-carboxylic acid]							

Compound	IL-1β level in cell culture supernatant (ELISA) [3]	expression of IL-1β (western blot) [4]	expression of caspase-1 (western blot) [4]	IL-1β level in cell culture supernatant (ELISA) [7]	increase of distance moved versus TgM83 vehicle mice (rescue of hypolocomotion) ([1]; 30 mg/kg oral gavage, one hour, P<0.05)	total distance moved in the open field test ([1]; 12-month-old, single dose 30 mg/kg PO, 1-hour period, mean±sem, TgM83 vehicle 15,472±942, WT 21,552±1,269)	prolonging of the falling latency versus TgM83 vehicle mice ([2]; 30 mg/kg oral gavage, P<0.05)	falling latency on the rotarod ([2]; single dose 30 mg/kg PO, accelerating 4-40 rpm, mean±sem, TgM83 vehicle 55.3±10.4, WT 99.5±7.5)	IL-1β level in the cerebellum (ELISA) [5]	IL-6 level in the cerebellum (ELISA) [6]	TNF-α level in the cerebellum (ELISA) [8]
COc1c(C)cnc(CSc2nc3cc(OC(=O)CNC(=O)OC(C)(C)C)ccc3[nH]2)c1C [compound 12093, 2-(((4-methoxy-3,5-dimethylpyridin-2-yl)methyl)thio)-1H-benzo[d]imidazol-5-yl (tert-butoxycarbonyl)glycinate]	significantly lower levels			significantly lower levels							
